# Assay results taken from US8530650B2, “2, 5-diamino-substituted pyrido [4, 3-D] pyrimidines as autotaxin inhibitors against cancer” (MERCK PATENT GmbH, priority 2008, dated 2013).
# Molecular target: T1, recombinant autotaxin (Homo sapiens, UniProt Q13822)
# T1 construct: made in house; host or cells: Hi5 insect cells (baculovirus)
# Test: Autotaxin assay (Amplex Red, LPC substrate)
# Format: biochemical
# Conditions: 75 μM LPC, Amplex Red fluorescence, ten 1:3 dilutions starting at 30 μM
# Procedure, shortened: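 Baculovirus (Hi5)-expressed autotaxin (16 ng) was preincubated with compound 30 min at 22° C., then reacted with 75 μM final egg LPC for 90 min at 37° C.; choline released was coupled via choline oxidase/peroxidase to Amplex Red, fluorescence read kinetically (ex 485/em 612 nm). IC50 from 10-point 1:3 dilutions from 30 μM, duplicates, normalized to 500 μM C14 LPA as 0%.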
row,Compound,IC50
1,"CCN1CCN(C(=O)C2CCN(c3nccc4nc(NCc5ccccc5Cl)ncc34)CC2)CC1 [Compound 72, {1-[2-(2-Chloro-benzylamino)-pyrido[4,3-d]pyrimidin-5-yl]-piperidin-4-yl}-(4-ethyl-piperazin-1-yl)-methanone]",< 5 µM
2,"O=C(c1ccco1)N1CCN(c2nccc3nc(NCc4ccccc4Cl)ncc23)CC1 [Compound 113, {4-[2-(2-Chloro-benzylamino)-pyrido[4,3-d]pyrimidin-5-yl]-piperazin-1-yl}-furan-2-yl-methanone]",< 5 µM
3,"COc1ccc(Nc2nccc3nc(NCc4ccccc4)ncc23)cc1 [Compound 3, N2-Benzyl-N5-(4-methoxy-phenyl)-pyrido[4,3-d]pyrimidine-2,5-diamine]",< 30 µM
4,"CCOCCCNC(=O)C1CCN(c2nccc3nc(NCc4ccccc4OC)ncc23)CC1 [Compound 102, 1-[2-(2-Methoxy-benzylamino)-pyrido[4,3-d]pyrimidin-5-yl]-piperidine-4-carboxylic acid (3-ethoxy-propyl)-amide]",< 30 µM
5,"COc1ccccc1CNc1ncc2c(N3CCC(C(=O)Nc4cc(C)on4)CC3)nccc2n1 [Compound 77, 1-[2-(2-Methoxy-benzylamino)-pyrido[4,3-d]pyrimidin-5-yl]-piperidine-4-carboxylic acid (5-methyl-isoxazol-3-yl)-amide]",< 30 µM
6,"CCOCCCNC(=O)C1CCCN(c2nccc3nc(NCc4ccccc4Cl)ncc23)C1 (stereo not shown) [Compound 88, 1-[2-(2-Chloro-benzylamino)-pyrido[4,3-d]pyrimidin-5-yl]-piperidine-3-carboxylic acid (3-ethoxy-propyl)-amide]",< 10 µM
7,"COc1ccc(Nc2nccc3nc(NCc4ccccc4)ncc23)cc1OC [Compound 6, N2-Benzyl-N5-(3,4-dimethoxy-phenyl)-pyrido[4,3-d]pyrimidine-2,5-diamine]",< 30 µM
8,"CC(C)NC(=O)C1CCN(c2nccc3nc(NCc4ccccc4)ncc23)CC1 [Compound 61, 1-(2-Benzylamino-pyrido[4,3-d]pyrimidin-5-yl)-piperidine-4-carboxylic acid isopropylamide]",< 30 µM
9,"COc1ccc(CNc2ncc3c(N4CCCC(C(=O)N5CCN(c6ccccn6)CC5)C4)nccc3n2)cc1 (stereo not shown) [Compound 95, {1-[2-(4-Methoxy-benzylamino)-pyrido[4,3-d]pyrimidin-5-yl]-piperidin-3-yl}-(4-pyridin-2-yl-piperazin-1-yl)-methanone]",< 30 µM
10,"Fc1ccc(CNc2ncc3c(Nc4ccccc4F)nccc3n2)cc1 [Compound 24, N2-(4-Fluoro-benzyl)-N5-(2-fluoro-phenyl)-pyrido[4,3-d]pyrimidine-2,5-diamine]",< 30 µM
11,"O=C(Cc1ccccn1)N1CCN(c2nccc3nc(NCc4ccccc4Cl)ncc23)CC1 [Compound 119, 1-{4-[2-(2-Chloro-benzylamino)-pyrido[4,3-d]pyrimidin-5-yl]-piperazin-1-yl}-2-pyridin-2-yl-ethanone]",< 5 µM
12,"COc1ccc(Nc2nccc3nc(NCc4ccccc4Cl)ncc23)c(OC)c1 [Compound 14, N2-(2-Chloro-benzyl)-N5-(2,4-dimethoxy-phenyl)-pyrido[4,3-d]pyrimidine-2,5-diamine]",< 30 µM
13,"Fc1ccc(CNc2ncc3c(N4CCCC4)nccc3n2)cc1 [Compound 20, (4-Fluoro-benzyl)-(5-pyrrolidin-1-yl-pyrido[4,3-d]pyrimidin-2-yl)-amine]",< 30 µM
14,"COc1ccc(CNc2ncc3c(Nc4ccc(F)cc4C)nccc3n2)cc1 [Compound 59, N5-(4-Fluoro-2-methyl-phenyl)-N2-(4-methoxy-benzyl)-pyrido[4,3-d]pyrimidine-2,5-diamine]",< 10 µM
15,"O=C(Nc1cccnc1)C1CCN(c2nccc3nc(NCc4ccc(Cl)cc4)ncc23)CC1 [Compound 78, 1-[2-(4-Chloro-benzylamino)-pyrido[4,3-d]pyrimidin-5-yl]-piperidine-4-carboxylic acid pyridin-3-ylamide]",< 5 µM
16,"O=C(N1CCOCC1)N1CCN(c2nccc3nc(NCc4ccccc4Cl)ncc23)CC1 [Compound 116, {4-[2-(2-Chloro-benzylamino)-pyrido[4,3-d]pyrimidin-5-yl]-piperazin-1-yl}-morpholin-4-yl-methanone]",< 5 µM
17,"COc1ccc(CNc2ncc3c(Nc4ccc(OC)c(OC)c4)nccc3n2)cc1 [Compound 54, N5-(3,4-Dimethoxy-phenyl)-N2-(4-methoxy-benzyl)-pyrido[4,3-d]pyrimidine-2,5-diamine]",< 30 µM
18,"c1ccc(CNc2ncc3c(Nc4ccc5c(c4)OCO5)nccc3n2)cc1 [Compound 5, N5-Benzo[1,3]dioxol-5-yl-N2-benzyl-pyrido[4,3-d]pyrimidine-2,5-diamine]",< 30 µM
19,"COc1ccccc1CNc1ncc2c(Nc3ccc(OC)c(OC)c3)nccc2n1 [Compound 38, N5-(3,4-Dimethoxy-phenyl)-N2-(2-methoxy-benzyl)-pyrido[4,3-d]pyrimidine-2,5-diamine]",< 30 µM
20,"Fc1ccc(Nc2nccc3nc(NCc4ccccc4)ncc23)cc1 [Compound 2, N2-Benzyl-N5-(4-fluoro-phenyl)-pyrido[4,3-d]pyrimidine-2,5-diamine]",< 30 µM
21,"Cc1ccc(CNc2ncc3c(N4CCCC(C(=O)Nc5cccnc5)C4)nccc3n2)cc1 (stereo not shown) [Compound 93, 1-[2-(4-Methyl-benzylamino)-pyrido[4,3-d]pyrimidin-5-yl]-piperidine-3-carboxylic acid pyridin-3-ylamide]",< 30 µM
22,"Fc1ccccc1Nc1nccc2nc(NCc3ccccc3Cl)ncc12 [Compound 100, N2-(2-Chloro-benzyl)-N5-(2-fluoro-phenyl)-pyrido[4,3-d]pyrimidine-2,5-diamine]",< 10 µM
